This is an account of results in US8895568B2, “Compositions comprising substituted pteridines as agrochemicals” (Dow AgroSciences LLC, priority 2009, dated 2014).

Where two headings read alike, the source gives them in different places.

Assay type in all cases: in vivo
Assay [1] relates to Cochliobolus sativus. In words: Spot Blotch of Wheat (COCHSA), foliar spray, percent disease control.
The subject of assay [2] is DROSME, AEDSAE, LAPHEG, or HELIVI. In words: Insecticidal activity, active if any of DROSME, AEDSAE, LAPHEG or HELIVI was controlled at 80% or more. The settings on record: read-out: >80% mortality on any insect species @ 4000 ppm.
For assay [3], the system named is Colletotricum lagenarium. In words: Cucumber Anthracnose (COLLLA), foliar spray, percent disease control.
The test system of assay [4] is Pseudoperonospora cubensis. In words: Cucumber Downy Mildew (PSPECU), foliar spray, percent disease control. The settings on record: read-out: PSPECU percent control.
Setting [5] is: Bipolaris sorokiniana, foliar; read-out: COCHSA percent control.
[6] abbreviates: Bipolaris sorokiniana; foliar spray; read-out: COCHSA percent control.

In the case of `COc1cc(CCNc2ncnc3nccnc23)ccc1Oc1nccc(C(F)(F)F)n1` [Compound 97], the pest or weed control at 200 µg/mL in assay [1] (setting [5]) lay within 0 to 49%; in assay [3] (foliar) it was 0 to 49%; in assay [4] (foliar), 80 to 100%. For the same compound, the pest or weed control at 4000 ppm in assay [2] is over 80%.
With `c1ccc(COc2ccc(CCOc3ccc(CCNc4ncnc5nccnc45)cc3)cc2)cc1` [Compound 140, (2-{4-[2-(4-Benzyloxy-phenyl)-ethoxy]-phenyl}-ethyl)-pteridin-4-yl-amine], the pest or weed control at 200 µg/mL lay in the range of 0 to 49% in assay [1] (setting [5]), 50 to 79% in assay [3] (foliar) and 80 to 100% in assay [4] (foliar). In assay [2], the pest or weed control at 4000 ppm was over 80%.
For the compound `Fc1cc(C(F)(F)F)ccc1Oc1ccc(CCNc2ncnc3nccnc23)cc1` [Compound 113], the values for the pest or weed control at 200 µg/mL in assay [1] (setting [5]), in assay [3] (foliar) and in assay [4] (foliar) were 0 to 49%, 0 to 49% and 80 to 100%, respectively. Also, the pest or weed control at 4000 ppm in assay [2] was over 80%.
Take `CCOc1cc(CCNc2ncnc3nccnc23)ccc1Oc1ccc(C(F)(F)F)cn1` [Compound 157]: the pest or weed control at 200 µg/mL in assay [1] (setting [5]) lay in the range of 0 to 49%; in assay [3] (foliar) it was 0 to 49%; in assay [4] (foliar), 80 to 100%. Moreover, the pest or weed control at 4000 ppm in assay [2] was over 80%.
For `Fc1cc(CCNc2ncnc3nccnc23)ccc1Oc1cc(C(F)(F)F)ccn1` [Compound 93], the values for the pest or weed control at 200 µg/mL in assay [1] (setting [5]), in assay [3] (foliar) and in assay [4] (foliar) were 50 to 79%, 80 to 100% and 80 to 100%, respectively. In assay [2], the pest or weed control at 4000 ppm is over 80%.
For the compound `c1ccc(-c2ccc(CCNc3ncnc4nccnc34)cc2)cc1` [Compound 125], the pest or weed control at 200 µg/mL in assay [1] (Bipolaris sorokiniana, foliar, read-out: COCHSA percent control) was in the range of 0 to 49%; in assay [3] (foliar), 50 to 79%; in assay [4] (foliar) it was 80 to 100%. Moreover, the pest or weed control at 4000 ppm in assay [2] is over 80%.
On to `Brc1ccc(Oc2ccc(CCNc3ncnc4nccnc34)cc2)cn1` [Compound 110], for which the pest or weed control at 200 µg/mL in assay [1] (setting [5]) was in the range of 0 to 49%; in assay [3] (foliar), 0 to 49%; in assay [4] (foliar), 80 to 100%. Besides, the pest or weed control at 4000 ppm in assay [2] is over 80%.
Consider `CC(C)c1ccc(Oc2ccc(CCNc3ncnc4nccnc34)cc2)cc1` [Compound 132, {2-[4-(4-Isopropylphenoxy)-phenyl]-ethyl}-pteridin-4-yl-amine], for which the pest or weed control at 200 µg/mL lay within 0 to 49% in assay [1] (setting [5]), 0 to 49% in assay [3] (foliar) and 80 to 100% in assay [4] (foliar). In addition, the pest or weed control at 4000 ppm in assay [2] was over 80%.
`FC(F)(F)c1ccncc1Oc1ccc(CCNc2ncnc3nccnc23)cc1` [Compound 111]: the pest or weed control at 200 µg/mL was in the range of 0 to 49% in assay [1] (setting [5]), 50 to 79% in assay [3] (foliar) and 80 to 100% in assay [4] (foliar). The pest or weed control at 4000 ppm in assay [2] was over 80%.
In the case of `Fc1nc(Oc2ccc(CCNc3ncnc4nccnc34)cc2)c(F)c(C(F)(F)F)c1F` [Compound 138, Pteridin-4-yl-{2-[4-(3,5,6-trifluoro-4-trifluoromethyl-pyridin-2-yloxy)-phenyl]-ethyl}-amine], the pest or weed control at 200 µg/mL in assay [1] (setting [5]) lay within 0 to 49%; in assay [3] (foliar) it was 80 to 100%; in assay [4] (foliar) it was 80 to 100%. Besides, the pest or weed control at 4000 ppm in assay [2] was over 80%.
On to `Cc1nc2ncnc(NCCc3ccc(Oc4ncc(C(F)(F)F)cc4F)cc3)c2nc1C` [Compound 163], for which the pest or weed control at 200 µg/mL in assay [1] (setting [5]) lay within 0 to 49%; in assay [3] (foliar), 80 to 100%; in assay [4] (foliar), 80 to 100%. Further, the pest or weed control at 4000 ppm in assay [2] is over 80%.
`FC(F)(F)c1cc(Cl)nc(Oc2ccc(CCNc3ncnc4nccnc34)cc2)c1` [Compound 90, {2-[4-(6-chloro-4-trifluoromethylpyridin-2-yloxy)-phenyl]-ethyl}-pteridin-4-yl-amine]: the values for the pest or weed control at 200 µg/mL in assay [1] (setting [5]), in assay [3] (foliar) and in assay [4] (foliar) were 0 to 49%, 0 to 49% and 80 to 100%, respectively. In assay [2], the pest or weed control at 4000 ppm was over 80%.
For the compound `CCCOc1cc(CCNc2ncnc3nccnc23)ccc1Oc1cc(C(F)(F)F)ccn1` [Compound 188], the results for the pest or weed control at 200 µg/mL in assay [1] (setting [5]), in assay [3] (foliar) and in assay [4] (foliar) were 0 to 49%, 80 to 100% and 80 to 100%, respectively. Besides, the pest or weed control at 4000 ppm in assay [2] is over 80%.
Take `Cc1cc(Oc2ccc(C(F)(F)F)cn2)c(C)cc1CCNc1ncnc2nccnc12` [Compound 156]: the pest or weed control at 200 µg/mL in assay [1] (setting [5]) fell in the range of 0 to 49%; in assay [3] (foliar), 0 to 49%; in assay [4] (foliar) it was 80 to 100%. The pest or weed control at 4000 ppm in assay [2] was over 80%.
On to `N#Cc1ccc(Oc2ccc(CCNc3ncnc4nccnc34)c(F)c2)nc1` [Compound 104], for which the pest or weed control at 200 µg/mL in assay [1] (setting [5]) is 0 to 49%; in assay [3] (foliar) it was 0 to 49%; in assay [4] (foliar), 80 to 100%. Further, the pest or weed control at 4000 ppm in assay [2] is over 80%.
Take `Cc1cnc2ncnc(NCCc3ccc(Oc4ccc(C(F)(F)F)cn4)cc3)c2n1` [Compound 41]: the pest or weed control at 200 µg/mL is 0 to 49% in assay [1] (setting [5]), 50 to 79% in assay [3] (foliar) and 80 to 100% in assay [4] (foliar). Besides, the pest or weed control at 4000 ppm in assay [2] is over 80%.
For `CC(C)OC(=O)c1cnc(Oc2ccc(CCNc3ncnc4nccnc34)cc2)c(Cl)c1` [Compound 164], the pest or weed control at 200 µg/mL in assay [1] (setting [5]), in assay [3] (foliar) and in assay [4] (foliar) was 0 to 49% throughout. Also, the pest or weed control at 4000 ppm in assay [2] was over 80%.
Regarding `Cc1cnc2ncnc(NCCc3ccc(Oc4cc(C(F)(F)F)ccn4)cc3)c2n1` [Compound 76], the pest or weed control at 200 µg/mL in assay [1] (setting [5]) is 0 to 49%; in assay [3] (foliar) it was 0 to 49%; in assay [4] (foliar) it was 80 to 100%. Also, the pest or weed control at 4000 ppm in assay [2] is over 80%.
`Cc1cnc2ncnc(NCCc3ccc(Oc4ncc(C(F)(F)F)cc4F)cc3)c2n1` [Compound 53]: the pest or weed control at 200 µg/mL in assay [1] (setting [5]) was 0 to 49%; in assay [3] (foliar), 80 to 100%; in assay [4] (foliar) it was 80 to 100%. In assay [2], the pest or weed control at 4000 ppm was over 80%.
As to `FC(F)(F)c1nc(Oc2ccc(CCNc3ncnc4nccnc34)cc2)ccc1Cl` [Compound 92], the figures for the pest or weed control at 200 µg/mL in assay [1] (setting [5]), in assay [3] (foliar) and in assay [4] (foliar) were 0 to 49%, 0 to 49% and 80 to 100%, respectively. Also, the pest or weed control at 4000 ppm in assay [2] was over 80%.
As for `FC(F)(F)c1ccnc(Oc2ccc(CCNc3ncnc4nccnc34)cc2Br)c1` [Compound 212, {2-[3-bromo-4-(4-trifluoromethylpyridin-2-yloxy)-phenyl]-ethyl}-pteridin-4-yl-amine], the pest or weed control at 200 µg/mL was 50 to 79% in assay [1] (setting [6]), 80 to 100% in assay [3] (foliar spray) and 80 to 100% in assay [4] (foliar spray). For the same compound, the pest or weed control at 4000 ppm in assay [2] was over 80%.
Consider `Cc1ccnc(Oc2ccc(CCNc3ncnc4nccnc34)cc2)c1` [Compound 42], for which the pest or weed control at 200 µg/mL in assay [1] (setting [5]) was 0 to 49%; in assay [3] (foliar) it was 80 to 100%; in assay [4] (foliar), 80 to 100%. The pest or weed control at 4000 ppm in assay [2] is over 80%.
For the compound `Cc1cnc2ncnc(NCCc3ccc(Oc4cncc(Cl)c4C#N)cc3)c2n1` [Compound 120], the pest or weed control at 200 µg/mL in assay [1] (setting [5]), in assay [3] (foliar) and in assay [4] (foliar) was 0 to 49% each time. The pest or weed control at 4000 ppm in assay [2] is over 80%.
Take `Cc1ccc(Oc2ccc(CCNc3ncnc4nccnc34)cc2)nc1` [Compound 40]: the pest or weed control at 200 µg/mL in assay [1] (setting [5]) is 0 to 49%; in assay [3] (foliar) it was 50 to 79%; in assay [4] (foliar), 80 to 100%. For the same compound, in assay [2], the pest or weed control at 4000 ppm was over 80%.
As to `CCOc1cc(CCNc2ncnc3nccnc23)ccc1Oc1cc(C(C)(F)F)ccn1` [Compound 189], the pest or weed control at 200 µg/mL in assay [1] (setting [5]) fell in the range of 0 to 49%; in assay [3] (foliar), 50 to 79%; in assay [4] (foliar) it was 80 to 100%.
For `Oc1ccc(CCNc2ncnc3nccnc23)cc1` [Compound 4, 4-[2-(Pteridin-4-ylamino)-ethyl]-phenol] the same measures were 0 to 49%, 0 to 49% and 0 to 49%.
In the case of `Cc1c(O)ccc(CCNc2ncnc3nccnc23)c1C` [Compound 175], the pest or weed control at 200 µg/mL in assay [1] (setting [5]), in assay [3] (foliar) and in assay [4] (foliar) was 0 to 49% in each case.
`FC(F)(F)c1ccnc(Oc2cccc(CCNc3ncnc4nccnc34)c2)c1` [Compound 46]: the pest or weed control at 200 µg/mL in assay [1] (setting [5]) lay within 0 to 49%; in assay [3] (foliar), 80 to 100%; in assay [4] (foliar), 80 to 100%.
Regarding `FC(F)(F)c1ccnc(Oc2cccc(OCCNc3ncnc4nccnc34)c2)c1` [Compound 86], the pest or weed control at 200 µg/mL in assay [1] (setting [5]) was 0 to 49%; in assay [3] (foliar), 0 to 49%; in assay [4] (foliar), 80 to 100%.
For `CCOc1cc(CCNc2ncnc3nccnc23)ccc1Oc1cc(C(C)C)ccn1` [Compound 205], the pest or weed control at 200 µg/mL in assay [1] (setting [6]) lay within 0 to 49%; in assay [3] (foliar spray), 0 to 49%; in assay [4] (foliar spray), 80 to 100%.
Turning to `c1cc(-c2nnc(Oc3ccc(CCNc4ncnc5nccnc45)cc3)s2)ccn1` [Compound 23], the pest or weed control at 200 µg/mL in assay [1] (setting [5]), in assay [3] (foliar) and in assay [4] (foliar) was 0 to 49% throughout.
With `O=Cc1cc(C(F)(F)F)ccc1Oc1ccc(CCNc2ncnc3nccnc23)cc1` [Compound 100], the pest or weed control at 200 µg/mL in assay [1] (setting [5]) is 0 to 49%; in assay [3] (foliar), 0 to 49%; in assay [4] (foliar) it was 80 to 100%.
On to `COc1cc(C(F)(F)F)cc(Oc2ccc(CCNc3ncnc4nccnc34)cc2)n1` [Compound 171], for which the pest or weed control at 200 µg/mL in assay [1] (setting [5]) lay within 0 to 49%; in assay [3] (foliar), 0 to 49%; in assay [4] (foliar), 80 to 100%.
